The compounds below were run against T1, human NaV1.6 (hNaV1.6) (Homo sapiens, UniProt Q9UQD0) (assay: Modulation of late sodium current (INaL) at hNaV1.6, PatchXpress electrophysiology). Conditions: HEK293, HEK-293 cells expressing recombinant human NaV 1.6, late current evoked by 300 nM ATX-II, read-out: NaV 1.6 Assay Data (percent inhibition of INaL at hNaV1.6).
T1 construct: expressed in transfected cells; host or cells: HEK-293
Format: cell-based
Procedure: Functional characterization of exemplary compounds to modulate INaL expressed by the NaV1.6 voltage-gated sodium channel was accomplished using the PatchXpress™ high throughput electrophysiology platform (Molecular Devices, Sunnyvale, CA). HEK-293 cells expressing recombinant, human NaV1.6 (hNaV1.6) were grown in DMEM/high-glucose Dulbecco's modified, 10% FBS, 2 mM sodium pyruvate, 10 mM HEPES and 400 μg/mL G418. Cells were grown to 50%-80% confluency prior to harvesting. Trypsinized cells were washed, allowed to recover for 1 hour and then resuspended in extracellular recording solution at a concentration of 1×10^6 cells/ml. The onboard liquid handling facility of the PatchXpress was used for dispensing cells and applying test compounds. NaV late currents were evoked by the application of 300 nM ATX-II. INaL was evoked by depolarizing pulses to 0 mV for 200 ms from a non-inactivating holding potential (e.g., −120 mV) at a frequency of 0.1 Hz. INaL amplitude and stability were determined by analyzing the mean current amplitude over the final 20 ms of the test pulse. Following steady state block with exemplary compounds (e.g., as described herein), a Na+ free solution containing an impermeant cation (e.g., Choline or NDMG) was added to confirm the identity of the sodium current. Percent steady-state inhibition of INaL was calculated as: […], where INaL_compound and INaL_control represent INaL recorded in the presence or absence of compound, respectively.
Results from this assay relating to percent inhibition of INaL at hNaV1.6 (measured using a procedure similar to described above but using HEK-293 cells expressing recombinant, human NaV 1.6 (h NaV 1.6) at 1 μM are summarized in Table 1 below. In this table, “A” indicates inhibition of less than 30%; “B” indicates inhibition of between about 30% to about 70%; and “C” indicates inhibition of greater than 70%. “N/A” indicates not available.

T1 sequence (Q9UQD0 whole entry): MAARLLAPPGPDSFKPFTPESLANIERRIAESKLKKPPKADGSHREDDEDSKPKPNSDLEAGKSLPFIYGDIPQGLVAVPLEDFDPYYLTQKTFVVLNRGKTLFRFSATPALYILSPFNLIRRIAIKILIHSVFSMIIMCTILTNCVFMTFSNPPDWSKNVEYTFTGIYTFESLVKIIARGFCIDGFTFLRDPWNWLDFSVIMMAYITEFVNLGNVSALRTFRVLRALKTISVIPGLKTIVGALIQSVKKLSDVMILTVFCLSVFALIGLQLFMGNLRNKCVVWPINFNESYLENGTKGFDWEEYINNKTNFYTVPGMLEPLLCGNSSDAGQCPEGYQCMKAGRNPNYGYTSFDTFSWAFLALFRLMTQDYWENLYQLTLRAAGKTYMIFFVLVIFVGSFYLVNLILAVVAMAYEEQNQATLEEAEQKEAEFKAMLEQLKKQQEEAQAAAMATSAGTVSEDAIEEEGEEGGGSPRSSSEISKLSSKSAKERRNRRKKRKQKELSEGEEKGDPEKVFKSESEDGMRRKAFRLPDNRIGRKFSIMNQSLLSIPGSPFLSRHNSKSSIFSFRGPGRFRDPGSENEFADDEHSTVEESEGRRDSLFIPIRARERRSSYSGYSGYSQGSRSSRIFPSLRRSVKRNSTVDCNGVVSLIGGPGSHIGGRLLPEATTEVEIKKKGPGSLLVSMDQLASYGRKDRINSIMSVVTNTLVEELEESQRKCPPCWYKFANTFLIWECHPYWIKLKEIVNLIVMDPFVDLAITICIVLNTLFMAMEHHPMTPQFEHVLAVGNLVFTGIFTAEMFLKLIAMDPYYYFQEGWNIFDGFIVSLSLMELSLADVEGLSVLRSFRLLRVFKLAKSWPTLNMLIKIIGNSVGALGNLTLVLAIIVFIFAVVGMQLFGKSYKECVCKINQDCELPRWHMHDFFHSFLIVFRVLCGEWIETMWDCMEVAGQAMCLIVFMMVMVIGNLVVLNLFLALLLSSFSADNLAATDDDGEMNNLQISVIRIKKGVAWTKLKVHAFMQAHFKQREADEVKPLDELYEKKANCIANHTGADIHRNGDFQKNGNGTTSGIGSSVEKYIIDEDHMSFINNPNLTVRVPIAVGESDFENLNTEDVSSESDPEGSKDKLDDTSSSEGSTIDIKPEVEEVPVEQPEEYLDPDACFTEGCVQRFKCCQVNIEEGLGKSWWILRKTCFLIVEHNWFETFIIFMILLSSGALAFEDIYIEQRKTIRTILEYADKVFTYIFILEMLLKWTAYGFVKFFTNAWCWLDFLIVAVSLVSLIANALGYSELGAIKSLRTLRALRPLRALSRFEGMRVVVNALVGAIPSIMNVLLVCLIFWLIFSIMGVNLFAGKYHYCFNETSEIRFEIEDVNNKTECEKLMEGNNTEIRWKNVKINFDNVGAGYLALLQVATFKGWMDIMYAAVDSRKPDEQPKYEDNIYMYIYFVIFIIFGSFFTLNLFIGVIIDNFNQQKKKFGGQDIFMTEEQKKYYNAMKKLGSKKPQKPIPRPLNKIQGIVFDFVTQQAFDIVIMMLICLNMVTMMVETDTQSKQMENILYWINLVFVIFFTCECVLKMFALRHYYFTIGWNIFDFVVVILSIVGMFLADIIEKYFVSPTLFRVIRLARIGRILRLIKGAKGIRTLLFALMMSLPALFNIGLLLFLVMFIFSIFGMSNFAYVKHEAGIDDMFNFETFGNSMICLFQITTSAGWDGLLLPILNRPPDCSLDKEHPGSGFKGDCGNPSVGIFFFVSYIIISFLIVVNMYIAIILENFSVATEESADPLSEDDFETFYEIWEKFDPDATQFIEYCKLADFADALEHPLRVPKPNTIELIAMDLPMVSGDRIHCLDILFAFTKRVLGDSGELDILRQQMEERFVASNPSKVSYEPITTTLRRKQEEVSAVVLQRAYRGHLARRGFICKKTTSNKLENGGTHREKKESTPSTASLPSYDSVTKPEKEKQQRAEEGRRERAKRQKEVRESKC

Row | SMILES | inhibition at 1 µM [%]
1 | CCOC(F)(F)c1nnc2cnc(-c3ccc([C@@H](C)OCC(F)(F)F)cc3C)cn12 (single isomer, unassigned) [Compound III-9] | 30 to 70
2 | CO[C@H](C)c1nnc2cnc(-c3ccc(O[C@H](C4CC4)C(F)(F)F)nc3)cn12 (single isomer, unassigned) [Compound I-24] | < 30
3 | CCO[C@H](C)c1nnc2cnc(-c3ccc(OC(C)(C)C(F)(F)F)nc3)cn12 [Compound I-19, (R)-3-(1-ethoxyethyl)-6-(6-((1,1,1-trifluoro-2-methylpropan-2-yl)oxy)pyridin-3-yl)-[1,2,4]triazolo[4,3-a]pyrazine] | 30 to 70
4 | COC(C)(C)c1nnc2cnc(-c3cnc(OC4(C(F)(F)F)CCC4)c(F)c3)cn12 [Compound II-12, 6-(5-fluoro-6-(1-(trifluoromethyl)cyclobutoxy)pyridin-3-yl)-3-(2-methoxypropan-2-yl)-[1,2,4]triazolo[4,3-a]pyrazine] | > 70
5 | CCOC(F)(F)c1nnc2cnc(-c3ccc([C@@H](C)OCC(F)(F)F)cc3)cn12 (single isomer, unassigned) [Compound III-19] | < 30
6 | CCO[C@@H](C)c1nnc2cnc(-c3cnc(OC4(C(F)(F)F)CCC4)c(F)c3)cn12 [Compound I-7, (S)-3-(1-ethoxyethyl)-6-(5-fluoro-6-(1-(trifluoromethyl)cyclobutoxy)pyridin-3-yl)-[1,2,4]triazolo[4,3-a]pyrazine] | 30 to 70
7 | COCC(F)(F)Oc1ccc(-c2cn3c(C(F)(F)F)nnc3cn2)cc1 [Compound III-12, 6-(4-(1,1-difluoro-2-methoxyethoxy)phenyl)-3-(trifluoromethyl)-[1,2,4]triazolo[4,3-a]pyrazine] | 30 to 70
